# Earlier results as cited in US20050281746A1, “Anticoagulant contrast media” (priority 2004, published 2005).
# Legend:
# [1] = X-ray contrast agents grouped by structure; classes High / Low / Iso
# [2] = X-ray contrast agents grouped by structure
# [3] = X-ray contrast agents grouped by ionicity and benzene rings
Structure (SMILES),Osmolality (mOsm/kg) [1],Viscosity (cps) [2] [cps],Adverse effects [3]
CC(=O)N(CC(O)CN(C(C)=O)c1c(I)c(C(=O)NCC(O)CO)c(I)c(C(=O)NCC(O)CO)c1I)c1c(I)c(C(=O)NCC(O)CO)c(I)c(C(=O)NCC(O)CO)c1I (centres unmarked) [Iodixanol],(280) mOsm/kg,26,Thrombotic
CC(=O)N(CC(O)CO)c1c(I)c(C(=O)NCC(O)CO)c(I)c(C(=O)NCC(O)CO)c1I (centres unmarked) [Iohexol],,,Thrombotic
CN(C(=O)CO)c1c(I)c(C(=O)NCC(O)CO)c(I)c(C(=O)NCC(O)CO)c1I (centres unmarked) [Iomerpol],,,Thrombotic
C[C@H](O)C(=O)Nc1c(I)c(C(=O)NC(CO)CO)c(I)c(C(=O)NC(CO)CO)c1I [Iopamidol],,,Thrombotic
COCC(O)CN(C(C)=O)c1c(I)c(C(=O)NCC(O)CO)c(I)c(C(=O)NCC(O)CO)c1I (centres unmarked) [Iopentol],,,Thrombotic
COCC(=O)Nc1c(I)c(C(=O)NCC(O)CO)c(I)c(C(=O)N(C)CC(O)CO)c1I (centres unmarked) [Iopromide],,,Thrombotic
